The source of these data is patent publication US11865126B2, “Method for treating anxiety disorders, headache disorders, and eating disorders with psilocybin” (priority 2019, dated 2024).

This assay deals with healthy subjects. The assay is described as follows: Pictorial Empathy Test (PET). In kind it is in vivo, human. How it is done: In some embodiments, the Pictorial Empathy Test (PET) is utilized to evaluate the effect of psilocybin on affective empathy.
The following list of outcome measures are non-exhaustive. • a. The short-term change from Baseline (Day −1 [Visit 2]) to Day 7 (Visit 5) in cognitive measures of attention, spatial and working memory and executive function was measured by a composite score of the CANTAB Panel (Spatial Working Memory [SWM], Rapid Visual Information Processing [RVP], Paired Associates Learning [PAL]). • b. The short-term change from Baseline (Day −1 [Visit 2]) to Day 7 (Visit 5) in Social Cognition Panel scales (Pictorial Empathy Test [PET], Reading the Mind in the Eyes Test [RMET], Toronto Empathy Questionnaire [TEQ], Social Value Orientation [SVO], Scale of Social Responsibility [SSR]). • c. The change from Baseline (Day −1 [Visit 2]) to Day 28 (Visit 6) in cognitive measures of attention, spatial and working memory and executive function as measured by a composite score of the CANTAB Panel (SWM, RVP, PAL). • d. The long-term change from Baseline (Day −1 [Visit 2]) to Day 84 (Visit 7) in Social Cognition Panel scales (PET, RMET, TEQ, SVO, SSR). • e. Dose-related differences between cognitive effects of psilocybin at Baseline (Day −1 [Visit 2]), Day 7 (Visit 5) and Day 28 (Visit 6), as measured by a composite score of the CANTAB Panel (SWM, RVP, PAL). • f. Dose-related differences between psychological effects of psilocybin at Baseline (Day −1 [Visit 2]), Day 7 (Visit 5) and Day 84 (Visit 7), as measured by Social Cognition Panel scales (PET, RMET, TEQ, SVO, SSR). • g. Differences in cognitive effects of psilocybin between psilocybin-naïve and experienced subjects at Baseline (Day −1 [Visit 2]), Day 7 (Visit 5) and Day 28 (Visit 6), as measured by a composite score of the CANTAB Panel (SWM, RVP, PAL). • h. Differences in Positive and Negative Affect Schedule (PANAS) after study drug administration on Day 0 (Visit 3). • i. Differences between psilocybin and placebo in the Emotion Recognition Test (ERT), Intra-Extra Dimensional Set Shift (IED), One Touch Stockings (OTS), Verbal Fluency and Digit Span Forward at Day 7 (Visit 5). • j. A composite score of the CANTAB Panel, including the following tests: • i. Spatial Working Memory (SWM) (performed at Visit 2, Visit 5, and Visit 6). • ii. Rapid Visual Information Processing (RVP) (performed at Visit 2, Visit 5, and Visit 6). • iii. Paired Associates Learning (PAL) (performed at Visit 2, Visit 5, and Visit 6). • k. Cognitive Flexibility Panel • i. Emotion Recognition Task (ERT) (performed at Visit 5). • ii. Intra-Extra Dimensional Set Shift (IED) (performed at Visit 5). • iii. One Touch Stockings (OTS) (performed at Visit 5). • iv. Verbal Fluency (performed at Visit 5). • v. Digit Span Forward (performed at Visit 5). • l. Five Dimension Altered States of Consciousness questionnaire (5D-ASC) (performed at Visit 3). • m. PANAS (performed at Visit 2 and Visit 3). • n. NEO-Five Factor Inventory (NEO-FFI) (performed at Visit 2, Visit 5, and Visit 7). • o. Symptom Checklist-90 item (SCL-90) (performed at Visit 2, Visit 5, and Visit 7). • p. Life Changes Inventory (LCI): The LCI measures changes in attitudes and values after near-death experiences often used to evaluate personal transformation following spiritually oriented experiences and practices. (performed at Visit 5 and Visit 7). • q. Social Cognition Panel scales • i. Pictorial Empathy Test (PET) (performed at Visit 2, Visit 5, and Visit 7). • ii. Reading the Mind in the Eyes Test (RMET) (performed at Visit 2, Visit 5, and Visit 7). • iii. Social Value Orientation (SVO) (performed at Visit 2, Visit 5, and Visit 7). • iv. Toronto Empathy Questionnaire (TEQ) (performed at Visit 2, Visit 5, and Visit 7). • v. Scale of Social Responsibility (SSR) (performed at Visit 2, Visit 5, and Visit 7). • r. Sheehan Suicidality Tracking Scale (SSTS) • s. Mini International Neuropsychiatric Interview (MINI). • t. […]

Consider `CN(C)CCc1c[nH]c2cccc(OP(=O)(O)O)c12` [psilocybin], for which, for the setting “Day 7, MMRM”, the “PET change from baseline, LS mean difference Psilocybin 10 mg - Placebo” value was −0.1; the “PET change from baseline, LS mean difference Psilocybin 25 mg - Placebo” value amounted to 0.2; the “PET change from baseline, LS mean difference Psilocybin 25 mg-10 mg” value is 0.3. Also, under “Day 84, MMRM”, the “PET change from baseline, LS mean difference Psilocybin 10 mg - Placebo” value is −0.1; the “PET change from baseline, LS mean difference Psilocybin 25 mg - Placebo” value turned out to be 0.1; the “PET change from baseline, LS mean difference Psilocybin 25 mg-10 mg” value is 0.3.
